Holding throughout (type): biochemical
For one assay, the target named is TNIK (Homo sapiens, UniProt Q9UKE5). Kind of assay: Enzymatic kinase assay, TNIK. The procedure:
[Worded in the source for another target; this target is reported under the same test.] (§1) The anti-JNK3 activity of compounds prepared as in the previous examples was evaluated using a Reaction Biology Corp. HotSpot Kinase Assay. Base reaction buffer was 20 mM HEPES (4-(2-hydroxyethyl)-1-piperazineethanesulfonic acid) at pH 7.5 with 10 mM MgCl2, 1 mM EGTA (ethylene glycol-bis(β-aminoethyl ether)-N,N,N′,N′-tetracetic acid), 0.02% Brij™ 35, 0.02 mg/mL BSA (bovine serum albumin), 0.1 mM Na3VO4, 2 mM DTT (dithiothreitol), and 1% DMSO. Required cofactors were added individually to each kinase reaction.
(§2) Kinase activity was evaluated as follows: • (1) Substrate was dissolved in freshly prepared reaction buffer • (2) Any required cofactors were dissolved in the substrate solution • (3) Kinase was added to the substrate solution followed by gentle mixing • (4) Compounds to be tested dissolved in 100% DMSO were added to the kinase reaction mixture using an Echo550 acoustic liquid handler (Labcyte, San Jose, CA) and incubated for 20 minutes at room temperature • (5) ^33P-ATP was added to the reaction mixture to initiate the kinase reaction • (6) The reaction mixture was incubated for 2 hours at room temperature • (7) Kinase activity was detected by spotting the kinase reaction on Whatman P81 paper, exposing and developing the images using a phosphorimager, and quantifying counts to determine kinase activity

A further assay concerns the target HGK (Homo sapiens, UniProt O95819). Kind of assay: Enzymatic kinase assay, HGK. The procedure:
[Worded in the source for another target; this target is reported under the same test.] as §1, §2

The target in the next assay is Abl-1 (Homo sapiens, UniProt P00519). Briefly: Enzymatic kinase assay, Abl-1. As to the method: [Worded in the source for another target; this target is reported under the same test.] as §1, §2
The target of a further assay is T1, JNK3 (Homo sapiens, UniProt P53779).
T1 construct: purchased Reaction Biology Corp
T1 sequence (P53779 whole entry): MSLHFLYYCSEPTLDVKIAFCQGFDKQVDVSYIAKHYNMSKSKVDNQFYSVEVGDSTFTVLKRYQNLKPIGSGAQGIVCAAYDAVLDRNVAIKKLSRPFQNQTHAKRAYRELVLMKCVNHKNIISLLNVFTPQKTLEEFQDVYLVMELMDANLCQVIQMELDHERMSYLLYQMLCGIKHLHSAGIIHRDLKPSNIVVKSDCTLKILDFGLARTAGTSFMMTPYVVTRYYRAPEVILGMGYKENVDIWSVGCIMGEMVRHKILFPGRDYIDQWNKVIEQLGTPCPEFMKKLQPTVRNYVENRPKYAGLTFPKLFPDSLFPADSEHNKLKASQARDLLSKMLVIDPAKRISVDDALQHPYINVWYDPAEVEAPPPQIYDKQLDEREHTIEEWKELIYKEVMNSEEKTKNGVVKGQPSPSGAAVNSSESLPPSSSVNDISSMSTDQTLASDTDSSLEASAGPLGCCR
Briefly: HotSpot Kinase Assay (Reaction Biology Corp.), anti-JNK3 activity. To be noted: HotSpot radiometric assay, 33P-ATP. In short, it runs like this: (§3)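 Radiometric HotSpot kinase assay in 20 mM HEPES pH 7.5 with 10 mM MgCl2, 1 mM EGTA, 0.02% Brij 35, 0.02 mg/mL BSA, 0.1 mM Na3VO4, 2 mM DTT and 1% DMSO. Cofactors were added per kinase, with the same format for all three kinases.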

The next assay has as its target T2, JNK1 (Homo sapiens, UniProt P45983).
T2 construct: purchased Reaction Biology Corp
Kind of assay: HotSpot Kinase Assay, JNK1. The note with it: HotSpot radiometric assay, 33P-ATP. A digest of the protocol: as §3

The target in another assay is T3, p38a (Homo sapiens, UniProt Q16539).
T3 construct: purchased Reaction Biology Corp
Kind of assay: HotSpot Kinase Assay, P38a. The note with it: HotSpot radiometric assay, 33P-ATP. A digest of the protocol:
as §3

The target in a further assay is DDR1 (Homo sapiens, UniProt Q08345). Kind of assay: Enzymatic kinase assay, DDR1. The procedure: [Worded in the source for another target; this target is reported under the same test.] as §1, §2
The target of another assay is MINK1 (Homo sapiens, UniProt Q8N4C8). Kind of assay: Enzymatic kinase assay, MINK1.
Chain of MINK1 (Q8N4C8 whole entry): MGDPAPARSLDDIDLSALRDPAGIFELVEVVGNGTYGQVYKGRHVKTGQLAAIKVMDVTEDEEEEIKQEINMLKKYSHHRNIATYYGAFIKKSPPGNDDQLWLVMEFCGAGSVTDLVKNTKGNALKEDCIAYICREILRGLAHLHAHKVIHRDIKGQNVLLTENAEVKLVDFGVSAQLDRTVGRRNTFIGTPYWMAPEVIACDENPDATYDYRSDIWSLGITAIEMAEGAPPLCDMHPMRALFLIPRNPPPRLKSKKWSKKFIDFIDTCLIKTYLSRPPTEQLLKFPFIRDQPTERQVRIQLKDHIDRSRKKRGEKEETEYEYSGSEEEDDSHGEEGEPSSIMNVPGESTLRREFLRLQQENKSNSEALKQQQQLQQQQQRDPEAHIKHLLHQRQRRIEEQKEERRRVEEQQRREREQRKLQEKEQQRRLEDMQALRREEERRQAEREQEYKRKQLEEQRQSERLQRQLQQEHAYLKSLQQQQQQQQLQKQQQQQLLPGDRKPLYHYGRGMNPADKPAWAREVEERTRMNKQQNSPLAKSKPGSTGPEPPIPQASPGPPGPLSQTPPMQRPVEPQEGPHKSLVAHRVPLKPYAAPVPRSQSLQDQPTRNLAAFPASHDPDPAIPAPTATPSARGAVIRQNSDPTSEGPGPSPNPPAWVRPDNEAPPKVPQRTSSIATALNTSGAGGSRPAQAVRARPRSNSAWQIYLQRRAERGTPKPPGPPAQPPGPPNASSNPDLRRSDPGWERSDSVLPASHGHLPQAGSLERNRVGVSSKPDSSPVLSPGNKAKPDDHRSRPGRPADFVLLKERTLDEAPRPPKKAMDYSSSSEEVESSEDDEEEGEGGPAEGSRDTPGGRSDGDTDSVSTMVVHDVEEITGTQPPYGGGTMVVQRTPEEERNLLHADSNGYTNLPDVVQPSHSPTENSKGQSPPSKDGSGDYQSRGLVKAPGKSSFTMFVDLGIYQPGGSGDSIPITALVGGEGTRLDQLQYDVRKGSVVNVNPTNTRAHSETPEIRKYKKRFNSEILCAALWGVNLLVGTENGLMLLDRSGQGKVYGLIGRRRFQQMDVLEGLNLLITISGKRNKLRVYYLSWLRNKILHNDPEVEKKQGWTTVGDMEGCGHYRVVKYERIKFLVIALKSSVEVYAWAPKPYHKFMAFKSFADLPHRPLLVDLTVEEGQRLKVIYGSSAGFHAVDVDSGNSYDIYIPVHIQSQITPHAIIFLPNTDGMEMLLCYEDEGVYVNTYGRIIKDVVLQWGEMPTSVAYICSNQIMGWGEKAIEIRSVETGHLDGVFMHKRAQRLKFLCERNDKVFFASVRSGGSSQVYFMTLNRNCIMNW

A word on the IC50: it is the concentration that gives 50% inhibition.

Structures are written as SMILES.

Chain of HGK (O95819 whole entry): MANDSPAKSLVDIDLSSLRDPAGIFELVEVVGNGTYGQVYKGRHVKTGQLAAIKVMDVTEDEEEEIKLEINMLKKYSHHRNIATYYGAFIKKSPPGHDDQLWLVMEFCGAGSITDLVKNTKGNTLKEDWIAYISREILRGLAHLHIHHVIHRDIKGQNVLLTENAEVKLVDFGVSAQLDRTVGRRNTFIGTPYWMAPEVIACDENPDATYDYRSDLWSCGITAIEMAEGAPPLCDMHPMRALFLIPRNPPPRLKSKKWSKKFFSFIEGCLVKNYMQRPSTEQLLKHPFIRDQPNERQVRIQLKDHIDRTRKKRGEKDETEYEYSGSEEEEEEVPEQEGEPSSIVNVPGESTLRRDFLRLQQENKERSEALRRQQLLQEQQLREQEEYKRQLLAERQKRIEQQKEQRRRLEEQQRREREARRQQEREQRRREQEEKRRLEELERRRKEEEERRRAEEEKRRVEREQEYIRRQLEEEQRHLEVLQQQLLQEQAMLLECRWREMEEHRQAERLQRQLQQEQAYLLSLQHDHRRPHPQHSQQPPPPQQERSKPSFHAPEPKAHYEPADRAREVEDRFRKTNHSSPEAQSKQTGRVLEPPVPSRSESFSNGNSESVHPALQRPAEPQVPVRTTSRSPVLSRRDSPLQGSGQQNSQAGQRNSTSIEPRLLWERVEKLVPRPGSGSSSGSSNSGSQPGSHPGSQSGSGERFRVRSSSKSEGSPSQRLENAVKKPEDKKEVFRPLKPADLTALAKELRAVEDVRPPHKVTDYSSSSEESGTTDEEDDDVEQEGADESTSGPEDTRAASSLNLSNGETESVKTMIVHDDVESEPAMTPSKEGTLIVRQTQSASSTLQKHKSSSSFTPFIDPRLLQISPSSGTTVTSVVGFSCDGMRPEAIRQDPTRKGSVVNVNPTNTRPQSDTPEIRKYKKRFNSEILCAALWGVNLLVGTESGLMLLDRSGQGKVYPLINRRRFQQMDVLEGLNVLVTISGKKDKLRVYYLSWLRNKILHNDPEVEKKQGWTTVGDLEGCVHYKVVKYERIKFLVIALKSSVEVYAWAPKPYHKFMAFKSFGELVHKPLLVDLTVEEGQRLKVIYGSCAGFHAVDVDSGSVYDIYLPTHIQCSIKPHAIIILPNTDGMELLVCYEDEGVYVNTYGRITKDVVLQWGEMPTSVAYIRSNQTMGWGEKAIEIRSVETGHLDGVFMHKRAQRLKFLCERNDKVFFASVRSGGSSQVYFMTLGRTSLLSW
Chain of TNIK (Q9UKE5 whole entry): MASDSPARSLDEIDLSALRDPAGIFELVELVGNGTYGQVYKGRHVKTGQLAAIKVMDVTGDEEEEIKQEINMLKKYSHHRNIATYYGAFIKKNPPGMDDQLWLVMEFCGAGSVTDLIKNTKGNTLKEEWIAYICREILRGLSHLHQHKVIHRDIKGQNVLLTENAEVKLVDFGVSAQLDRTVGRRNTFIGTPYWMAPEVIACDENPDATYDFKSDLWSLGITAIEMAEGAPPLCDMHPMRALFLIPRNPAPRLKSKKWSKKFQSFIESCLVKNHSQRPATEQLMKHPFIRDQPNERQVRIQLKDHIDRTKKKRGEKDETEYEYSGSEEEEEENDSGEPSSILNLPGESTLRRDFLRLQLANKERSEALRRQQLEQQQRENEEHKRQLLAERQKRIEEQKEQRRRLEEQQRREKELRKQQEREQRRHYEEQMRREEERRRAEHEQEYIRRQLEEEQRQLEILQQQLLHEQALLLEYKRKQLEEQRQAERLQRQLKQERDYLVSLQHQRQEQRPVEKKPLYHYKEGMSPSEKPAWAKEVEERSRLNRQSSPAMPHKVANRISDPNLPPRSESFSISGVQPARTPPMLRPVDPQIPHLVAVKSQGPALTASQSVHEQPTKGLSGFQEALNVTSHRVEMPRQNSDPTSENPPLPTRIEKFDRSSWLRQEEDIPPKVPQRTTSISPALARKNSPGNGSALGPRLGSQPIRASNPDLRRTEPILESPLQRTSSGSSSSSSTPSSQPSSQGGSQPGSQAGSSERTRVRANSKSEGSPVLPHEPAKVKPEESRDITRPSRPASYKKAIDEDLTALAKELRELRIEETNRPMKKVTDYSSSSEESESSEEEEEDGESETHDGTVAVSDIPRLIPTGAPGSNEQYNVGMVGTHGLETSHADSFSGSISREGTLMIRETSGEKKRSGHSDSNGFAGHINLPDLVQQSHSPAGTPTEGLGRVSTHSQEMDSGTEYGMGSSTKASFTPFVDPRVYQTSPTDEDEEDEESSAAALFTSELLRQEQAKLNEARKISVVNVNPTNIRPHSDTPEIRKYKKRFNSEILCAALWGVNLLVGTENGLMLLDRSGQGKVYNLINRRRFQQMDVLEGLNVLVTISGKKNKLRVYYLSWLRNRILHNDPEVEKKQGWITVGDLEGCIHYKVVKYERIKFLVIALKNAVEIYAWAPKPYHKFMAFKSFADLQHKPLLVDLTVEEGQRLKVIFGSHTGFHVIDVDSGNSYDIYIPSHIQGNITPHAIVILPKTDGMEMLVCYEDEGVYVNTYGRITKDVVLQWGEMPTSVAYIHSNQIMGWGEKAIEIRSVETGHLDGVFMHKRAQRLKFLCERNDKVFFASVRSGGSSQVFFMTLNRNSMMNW
T2 sequence (P45983 whole entry): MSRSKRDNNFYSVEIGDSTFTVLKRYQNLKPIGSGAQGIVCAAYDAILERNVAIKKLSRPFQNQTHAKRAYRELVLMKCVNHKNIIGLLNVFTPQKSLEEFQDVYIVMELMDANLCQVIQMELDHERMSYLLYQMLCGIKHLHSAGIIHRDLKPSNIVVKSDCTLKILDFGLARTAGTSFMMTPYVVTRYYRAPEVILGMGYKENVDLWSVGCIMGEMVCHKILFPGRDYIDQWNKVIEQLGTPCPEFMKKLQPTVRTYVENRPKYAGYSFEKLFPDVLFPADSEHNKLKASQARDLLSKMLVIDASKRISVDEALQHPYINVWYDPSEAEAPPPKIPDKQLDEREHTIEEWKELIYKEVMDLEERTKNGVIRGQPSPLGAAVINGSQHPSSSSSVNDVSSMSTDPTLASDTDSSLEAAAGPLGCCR

Turning to `COc1cccc(Cl)c1Nc1cc2cnn(-c3csc(C(=O)NC4COC4)c3)c2nc1C` [Compound 110, 4-(5-((2-chloro-6-methoxyphenyl)amino)-6-methyl-1H-pyrazolo[3,4-b]pyridin-1-yl)-N-(oxetan-3-yl)thiophene-2-carboxamide], the IC50 against TNIK was 200 to 1000 nM; on HGK it was > 1000 nM; against Abl-1, > 1000 nM; at JNK3 it was < 200 nM; against JNK1, > 1000 nM; at p38a, 200 to 1000 nM. The IC50 against DDR1 and at MINK1 was > 1000 nM each time.
For `CNC(=O)c1cc(-n2ncc3cc(Nc4c(Cl)cccc4OC)ncc32)cs1` [Compound 108, 4-(5-((2-chloro-6-methoxyphenyl)amino)-1H-pyrazolo[3,4-c]pyridin-1-yl)-N-methylthiophene-2-carboxamide], the IC50 against TNIK is < 200 nM; against HGK, < 200 nM; on Abl-1 it was > 1000 nM; against JNK3, < 200 nM; on JNK1, > 1000 nM; against p38a, 200 to 1000 nM. For the same molecule, the IC50 at DDR1 was 200 to 1000 nM; at MINK1, < 200 nM.
For `CNC(=O)c1cc(-n2ncc3cc(Nc4c(F)cccc4OC)ccc32)cs1` [Compound 93, 4-(5-((2-fluoro-6-methoxyphenyl)amino)-1H-indazol-1-yl)-N-methylthiophene-2-carboxamide], the IC50 on JNK3 is < 200 nM; against JNK1 it was > 1000 nM; against p38a, 200 to 1000 nM; at DDR1 it was 200 to 1000 nM.
Turning to `CNC(=O)c1cc(-n2ncc3cc(Nc4cccc(C)c4Cl)ncc32)cs1` [Compound 25, 4-(5-((2-chloro-3-methylphenyl)amino)-1H-pyrazolo[3,4-c]pyridin-1-yl)-N-methylthiophene-2-carboxamide], the IC50 is < 200 nM at TNIK; < 200 nM on HGK; < 200 nM against JNK3; 200 to 1000 nM against JNK1; 200 to 1000 nM at p38a; < 200 nM at MINK1.
As for `CN1CCN=C1NC(=O)c1cc(-n2ncc3nc(Nc4ccccc4Cl)ccc32)cs1` [Compound 58, 4-(5-((2-chlorophenyl)amino)-1H-pyrazolo[4,3-b]pyridin-1-yl)-N-(1-methyl-4,5-dihydro-1H-imidazol-2-yl)thiophene-2-carboxamide], the IC50 against TNIK was < 200 nM; against HGK, < 200 nM; on Abl-1, > 1000 nM; at JNK3, < 200 nM; against JNK1 it was > 1000 nM; on p38a, > 1000 nM. Moreover, the IC50 on DDR1 and on MINK1 was < 200 nM each time.
Regarding `CNC(=O)c1cc(-n2ncc3cc(Nc4c(F)cccc4Cl)c(OC)cc32)cs1` [Compound 91, 4-(5-((2-chloro-6-fluorophenyl)amino)-6-methoxy-1H-indazol-1-yl)-N-methylthiophene-2-carboxamide], the IC50 on TNIK was < 200 nM; against HGK, < 200 nM; on Abl-1 it was 200 to 1000 nM; against JNK3 it was < 200 nM; at JNK1 it was > 1000 nM; on p38a it was 200 to 1000 nM. Moreover, the IC50 against DDR1 was < 200 nM; at MINK1, 200 to 1000 nM.

Source of the values: US12448375B2, “Kinase inhibitors for the treatment of neurodegenerative diseases” (Ohio State Innovation Foundation, priority 2019, dated 2025).
